Reference: article PMC9227351, “A Novel Antihypertensive Pentapeptide Identified in Quinoa Bran Globulin Hydrolysates: Purification, In Silico Characterization, Molecular Docking with ACE and Stability against Different Food-Processing Conditions” (Nutrients, 2022)
Entries after “also recorded” stand apart in the source; their conditions may differ. Ends that are not written are not given here.

Experiments:
[1] = proline-rich literature peptides; cited from earlier work
Description: The main reason was the structural characteri ...

[2] = system: ACE; details: literature peptides; ref 13 (GYGYNY), 20 (SSYYPFK), 34 (NMAINPSKENLCSTFCK); read-out: IC50 of ACE-inhibitory activity; cited from earlier work
Description: Obviously, SAPPP was a pentapeptide of high content of Pro. […] Some special acid residues including aromatic amino acids (Phe, Trp and Tyr) and Pro in the C-terminal tripeptides can tightly bind with active sites of ACE and show ... || Peptides can bind to the key binding pockets of ACE (S1, S1′, and S2′), and disturb the combination of ACE and the […] (angiotensin-I or bradykinin), thereby showing a competitive inhibition pattern. […] Moreover, the docking T-Score of SAPPP (8.88) was higher than the required value (6.0).

[3] = system: ACE; assay: Stability against simulated gastrointestinal digestion, read out as ACE-inhibitory activity; format: in vitro ADME; details: peptide 1 mg/mL; pepsin pH 2.0 37 °C 90 min, then trypsin/bile salt pH 6.8 37 °C 180 min; activity before versus after digestion; p > 0.05
Method: As per the same procedure described by Jimsheena and Gowda, inhibition activity on ACE was evaluated by comparing the quantity of produced hippuric acid before and after the addition of the peptides. IC50 value was calculated from the regression equation of ACE inhibition percentage versus different concentrations of the sample, and defined as the concentration of sample when ACE-inhibitory activity was 50%.
Following the method of Sun et al., mixtures of trypsin (0.45 g), pig bile salt (3 g) and NaHCO3 (6.25 g) dissolved in 100 mL of dH2O (pH 6.8) were used to simulate intestinal fluid, whereas pepsin (40 mg) and NaCl (0.877 g) dissolved in 100 mL of dH2O (pH 2.0) were used as gastric fluid. Peptide solutions (dissolved in ultrapure water, 1 mg/mL) were incubated at 37 °C in a stirring bath (140 r/min) for 15 min; then, the simulated gastric fluid was added (gastric fluid: peptide solution = 1:10 v/v) and incubated at 37 °C (140 r/min) for 90 min. Then, the reaction solution was adjusted to pH 6.8 with Na2HPO4. The simulated intestinal fluid (the fluid: peptide solution = 1:10, v/v) was added and stirred (140 r/min) at 37 °C for 180 min. All the reaction solutions were heated at 100 °C for 8 min to inactivate the enzyme. Stability was calculated by comparing the ACE-inhibitory activities of the peptides before and after the digestion.

Row | Substance | Stability against gastrointestinal digestion [1] | IC50 [2] [µM] | Stability of ACE-inhibitory activity during simulated gastrointestinal digestion [3]
1 | KPVPR [proline-rich peptide identified in canary seed] | excellent stability | – | –
2 | NMAINPSKENLCSTFCK | – | 129 | –
3 | GYGYNY | – | 384 | –
4 | SAPPP [SAPPP, Ser-Ala-Pro-Pro-Pro] | – | – | resistant; also recorded: relatively stable
5 | LHPQ [proline-rich peptide identified in canary seed] | excellent stability | – | –
6 | SSYYPFK | excellent stability | 91.8 | –
7 | ELHPQ [proline-rich peptide identified in canary seed] | excellent stability | – | –
